The assay deals with Plasmodium berghei. In words: Luciferase/luciferin-expressing antifolate-resistant parasites were used to infect a culture of HepG2 cells that were pre-incubated with compounds. Infected hepatocytes emit light due to the luciferase reaction. Assay results are presented as the percent inhibition of light emission compared to control. […]. As to conditions: sporozoite; for IC90: read-out: LUCIFERASE INFECTION ASSAY - IC90. It is filed as functional.

[1] abbreviates: read-out: LUCIFERASE INFECTION ASSAY - IC50.

Our source for the IC50 and IC90 values is ChEMBL document CHEMBL4483862, “Open-source discovery of chemical leads for next-generation chemoprotective antimalarials” (2018).

The IC50 is the concentration that gives 50% inhibition. For orientation: IC90 means the point of the concentration-response curve where the effect stands at 90%. In the case of `COc1ccccc1NC(=S)N/N=C/c1ccc(N2CCOCC2)cc1`, the concentration for an effect of 90% (IC90) is above 10 µM. Moreover, for the setting “PBLUC_HILL_SLOPE 0.342, PBLUC_R_SQUARED 0.162, read-out: LUCIFERASE INFECTION ASSAY - IC50”, the IC50 stood at 1.98 µM.

As for `COc1ccc(CN2CCN(c3nc4c(Cl)c(C)nn4c4ccccc34)CC2)cc1OC`, the concentration for an effect of 90% (IC90) was above 10 µM. For the same compound, the IC50 (HEPG2TOX_HILL_SLOPE 0.0984, HEPG2TOX_R_SQUARED 0.313, PBLUC_HILL_SLOPE 1.53, PBLUC_R_SQUARED 0.0755, read-out: LUCIFERASE INFECTION ASSAY - IC50) is above 10 µM.

With `CC(C)Oc1cccc(C(=O)N2C(C)CCCC2C)c1` (stereo not drawn), the IC90 was above 12 µM. Further, the IC50 under setting [1] was above 12 µM.

Consider `CN(C)c1ccc(/C=C/c2ccc3c4ccccc4ccc3[n+]2-c2ccccc2)cc1`, for which the 90% effect concentration (IC90) turned out to be 1.23 µM. Under setting [1], the 50% inhibitory concentration (IC50) worked out at 1.07 µM.

On to `FC(F)(F)c1cccc(-c2nc3ccnc(Nc4ccccc4)c3[nH]2)c1`, for which the IC90 is above 10 µM. The half-maximal inhibitory concentration (IC50) under setting [1] was found to be 3.2 µM.

As for `c1ccc(Sc2c(-c3ccccc3)cc3ccccn23)cc1`, the IC90 turned out to be 9.91 µM. Further, the half-maximal inhibitory concentration (IC50) (FFLUC_HILL_SLOPE 15.3, FFLUC_R_SQUARED 0.586, PBLUC_HILL_SLOPE 15.5, PBLUC_R_SQUARED 0.389, read-out: LUCIFERASE INFECTION ASSAY - IC50) was 8.6 µM.

Take `CCCn1c(-c2ccc(OC)cc2)nc2c(c(=O)c3ccccc3n2C)c1=O`: the IC90 came to 7.12 µM. In addition, the 50% inhibitory concentration (IC50) (PBLUC_HILL_SLOPE 3.15, PBLUC_R_SQUARED 0.522, read-out: LUCIFERASE INFECTION ASSAY - IC50) turned out to be 3.55 µM.

Turning to `CN(C)c1ccc(C(c2ccc(N(C)C)cc2)c2ccc(Cl)c(Cl)c2)cc1`, the IC90 is above 8.26 µM. The IC50 (PBLUC_HILL_SLOPE 0.805, PBLUC_R_SQUARED 0.379, read-out: LUCIFERASE INFECTION ASSAY - IC50) stood at 3.91 µM.

`OCc1cccc(-c2cnc3ccc(-c4cccc(OC(F)(F)F)c4)nn23)c1`: the concentration for an effect of 90% (IC90) was found to be 4.21 µM. Further, where the note is “HEPG2TOX_HILL_SLOPE 8.38, HEPG2TOX_R_SQUARED 0.945, PBLUC_HILL_SLOPE 12.7, PBLUC_R_SQUARED 0.452, read-out: LUCIFERASE INFECTION ASSAY - IC50”, the IC50 is 3.54 µM.

On to `Cc1ccc(NC(=O)c2[nH]nc3c2CCCC3)cc1Cl`, for which the 90% effect concentration (IC90) was above 2 µM. The IC50 (PBLUC_HILL_SLOPE 0.552, PBLUC_R_SQUARED 0.432, read-out: LUCIFERASE INFECTION ASSAY - IC50) worked out at 0.0735 µM.

In the case of `O=C(Cc1cn2ccsc2n1)NNC(=O)c1cc(Cl)ccc1O`, the IC90 was 0.414 µM. Further, the IC50 (HEPG2TOX_HILL_SLOPE 0.838, HEPG2TOX_R_SQUARED 0.788, PBLUC_HILL_SLOPE 20.5, PBLUC_R_SQUARED 0.865, read-out: LUCIFERASE INFECTION ASSAY - IC50) was found to be 0.372 µM.

Turning to `CC(C)NC(=O)c1c(NC(=O)c2cccc(Cl)c2)nc2ccccn12`, the 90% effect concentration (IC90) turned out to be 2.22 µM. Moreover, the IC50 (HEPG2TOX_HILL_SLOPE 1.2, HEPG2TOX_R_SQUARED 0.976, PBLUC_HILL_SLOPE 4.43, PBLUC_R_SQUARED 0.437, read-out: LUCIFERASE INFECTION ASSAY - IC50) came to 1.35 µM.

In the case of `c1cncc(-c2nc(Nc3ccc4n[nH]cc4c3)c3ccccc3n2)c1`, the IC90 stood at 3.39 µM. The 50% inhibitory concentration (IC50) (HEPG2TOX_HILL_SLOPE 1.55, HEPG2TOX_R_SQUARED 0.922, PBLUC_HILL_SLOPE 123, PBLUC_R_SQUARED 0.319, read-out: LUCIFERASE INFECTION ASSAY - IC50) worked out at 3.33 µM.

On to `CC1CCN(/C(=N/S(=O)(=O)c2ccc(-n3nc(C(F)(F)F)cc3-c3cccs3)cc2)N/N=C/c2ccc(Cl)cc2)CC1`, for which the concentration for an effect of 90% (IC90) is above 5.2 µM. Also, under “FFLUC_HILL_SLOPE 12.3, FFLUC_R_SQUARED 0.48, read-out: LUCIFERASE INFECTION ASSAY - IC50”, the IC50 was above 5.2 µM.

Regarding `N#Cc1ccc(C(=O)Nc2ccc(Br)c(C(F)(F)F)c2)cc1`, the 90% effect concentration (IC90) is 9.89 µM. Also, under “HEPG2TOX_HILL_SLOPE 28, HEPG2TOX_R_SQUARED 0.813, PBLUC_HILL_SLOPE 18.1, PBLUC_R_SQUARED 0.807, read-out: LUCIFERASE INFECTION ASSAY - IC50”, the IC50 stood at 8.76 µM.

Take `COc1ccc(-c2cnc3ccc(NCC4CC4)nn23)cc1OC`: the 90% effect concentration (IC90) was found to be 2.25 µM. For the same compound, the IC50 (HEPG2TOX_HILL_SLOPE 1.71, HEPG2TOX_R_SQUARED 0.949, PBLUC_HILL_SLOPE 2.62, PBLUC_R_SQUARED 0.845, read-out: LUCIFERASE INFECTION ASSAY - IC50) came to 0.972 µM.

Regarding `COC(=O)c1cc(CNCC(O)COc2ccc(C(C)(C)CC(C)(C)C)cc2)ccc1OC` (stereo not drawn), the IC90 amounted to 4.63 µM. In addition, the IC50 (PBLUC_HILL_SLOPE 7.71, PBLUC_R_SQUARED 0.722, read-out: LUCIFERASE INFECTION ASSAY - IC50) turned out to be 3.48 µM.

With `O=C(NC(=S)NNc1ncc(C(F)(F)F)cc1Cl)c1cccs1`, the IC90 is 1.1 µM. Besides, the IC50 (FFLUC_HILL_SLOPE 14.4, FFLUC_R_SQUARED 0.344, HEPG2TOX_HILL_SLOPE 0.95, HEPG2TOX_R_SQUARED 0.974, PBLUC_HILL_SLOPE 2.04, PBLUC_R_SQUARED 0.707, read-out: LUCIFERASE INFECTION ASSAY - IC50) was 0.374 µM.

On to `CCCCc1ccc2nc(NC(=O)c3cnc(C)cn3)sc2c1`, for which the 90% effect concentration (IC90) was above 10 µM. In addition, the half-inhibitory concentration (IC50) (HEPG2TOX_HILL_SLOPE 2.45, HEPG2TOX_R_SQUARED 0.834, PBLUC_HILL_SLOPE 1.44, PBLUC_R_SQUARED 0.354, read-out: LUCIFERASE INFECTION ASSAY - IC50) was above 10 µM.

As to `O=C(Nc1ccccn1)c1ccc(Cl)c(S(=O)(=O)N(Cc2ccccc2)c2ccccc2)c1`, the IC90 is above 10 µM. The IC50 (PBLUC_HILL_SLOPE 2.32, PBLUC_R_SQUARED 0.355, read-out: LUCIFERASE INFECTION ASSAY - IC50) is 5.62 µM.

In the case of `CC(C)Oc1ccc(Nc2nccc3[nH]c(-c4ccccc4)cc23)cc1`, the IC90 was 4.19 µM. The 50% inhibitory concentration (IC50) (HEPG2TOX_HILL_SLOPE 24.7, HEPG2TOX_R_SQUARED 0.868, PBLUC_HILL_SLOPE 10.9, PBLUC_R_SQUARED 0.493, read-out: LUCIFERASE INFECTION ASSAY - IC50) was 3.42 µM.

In the case of `COc1cc(C(O)(c2nc3ccccc3s2)C(F)(F)F)c(OC)cc1N` (stereo not drawn), the concentration for an effect of 90% (IC90) is above 10 µM. In addition, for the setting “HEPG2TOX_HILL_SLOPE 2.34, HEPG2TOX_R_SQUARED 0.875, PBLUC_HILL_SLOPE 2.52, PBLUC_R_SQUARED 0.408, read-out: LUCIFERASE INFECTION ASSAY - IC50”, the IC50 is 6.31 µM.

Regarding `CN(Cc1ccc2c(c1)OCCO2)C(=O)c1ccc(NC(=O)C23CC4CC(CC(C4)C2)C3)cc1`, the concentration for an effect of 90% (IC90) was above 10 µM. Also, the IC50 (PBLUC_HILL_SLOPE 12.4, PBLUC_R_SQUARED 0.0833, read-out: LUCIFERASE INFECTION ASSAY - IC50) was above 10 µM.

For the compound `Cc1nn(S(=O)(=O)c2ccc(-c3cc(C(F)(F)F)n(C)n3)s2)c(C)c1Br`, the IC90 is above 7.03 µM. Further, the IC50 under setting [1] is above 7.03 µM.

In the case of `C=S(=O)(NC(=O)c1ccc(C(F)(F)F)cc1)c1ccccc1` (stereo not drawn), the 90% effect concentration (IC90) was above 10.1 µM. Under setting [1], the IC50 was above 10.1 µM.

As to `O=C(c1cnc(Nc2cccc(Cc3ccccc3)c2)[nH]1)c1ccccc1O`, the concentration for an effect of 90% (IC90) was above 8.93 µM. Under “PBLUC_HILL_SLOPE 2.54, PBLUC_R_SQUARED 0.464, read-out: LUCIFERASE INFECTION ASSAY - IC50”, the IC50 is 6.19 µM.

Turning to `Cc1ccc(Sc2nc3ccccc3nc2NS(=O)(=O)c2ccc(F)cc2C)cc1`, the concentration for an effect of 90% (IC90) was above 10 µM. For the same compound, for the setting “HEPG2TOX_HILL_SLOPE 0.43, HEPG2TOX_R_SQUARED 0.741, read-out: LUCIFERASE INFECTION ASSAY - IC50”, the concentration for half-maximal inhibition (IC50) is above 10 µM.

`COc1cccc(CNCc2nc(NCc3cccc(OC)c3)c3c(C)c(C)sc3n2)c1`: the IC90 was above 10 µM. The concentration for half-maximal inhibition (IC50) (HEPG2TOX_HILL_SLOPE 3.99, HEPG2TOX_R_SQUARED 0.699, PBLUC_HILL_SLOPE 15.2, PBLUC_R_SQUARED 0.535, read-out: LUCIFERASE INFECTION ASSAY - IC50) amounted to 8.97 µM.

In the case of `O=S(=O)(c1cc(C(F)(F)F)cc(C(F)(F)F)c1)N1CCC(C(c2ccccc2)c2ccccc2)CC1`, the IC90 is above 6.26 µM. Besides, the IC50 (FFLUC_HILL_SLOPE 21.5, FFLUC_R_SQUARED 0.833, read-out: LUCIFERASE INFECTION ASSAY - IC50) was above 6.26 µM.

As to `O=C1C=CC(=O)N1c1ccccc1Oc1ccc(Cl)cc1Cl`, the concentration for an effect of 90% (IC90) is above 9.88 µM. Further, under “PBLUC_HILL_SLOPE 0.641, PBLUC_R_SQUARED 0.0559, read-out: LUCIFERASE INFECTION ASSAY - IC50”, the IC50 was above 9.88 µM.

With `COc1ccc(CCN2C(=O)N(C(C)C)C(=O)C23CCN(Cc2ccc(Cl)cc2)CC3)cc1`, the IC90 is above 7.02 µM. Further, the IC50 (PBLUC_HILL_SLOPE 14.8, PBLUC_R_SQUARED 0.317, read-out: LUCIFERASE INFECTION ASSAY - IC50) is 6.11 µM.

As to `Cc1cc(C)cc(N(C(=O)Cc2coc3cc(C)ccc23)c2nc(-c3ccc(F)cc3)cs2)c1`, the IC90 was above 10 µM. Also, the IC50 under setting [1] is above 10 µM.

On to `Cc1nn(-c2nc3ccccc3s2)c2c1C(c1cc(Br)c(O)c(Br)c1)C1C(=O)CCCC1=N2` (stereo not drawn), for which the IC90 is above 10 µM. In addition, the IC50 (FFLUC_HILL_SLOPE 9.07, FFLUC_R_SQUARED 0.197, PBLUC_HILL_SLOPE 1.11, PBLUC_R_SQUARED 0.592, read-out: LUCIFERASE INFECTION ASSAY - IC50) was found to be 4.69 µM.

Consider `CCCNC(=O)c1c(NC(=O)c2cccc(F)c2)nc2ccc(C)cn12`, for which the 90% effect concentration (IC90) was above 9.31 µM. The concentration for half-maximal inhibition (IC50) (PBLUC_HILL_SLOPE 9.17, PBLUC_R_SQUARED 0.612, read-out: LUCIFERASE INFECTION ASSAY - IC50) came out at 7.79 µM.
